The target of one test is Carbonic anhydrase 1 (Homo sapiens, UniProt P00915). Briefly: Inhibition of human carbonic anhydrase 1 after 15 mins by stopped flow CO2 hydration assay.
For a further test, the target named is Carbonic anhydrase 2 (Homo sapiens, UniProt P00918). Briefly: Inhibition of human carbonic anhydrase 2 after 15 mins by stopped flow CO2 hydration assay.

Molecules are shown by their SMILES.

The Ki is a measure of affinity in units of concentration, obtained from inhibition or displacement. A low value points to a stronger hold on the target.

Sequence of Carbonic anhydrase 1 (P00915 whole entry): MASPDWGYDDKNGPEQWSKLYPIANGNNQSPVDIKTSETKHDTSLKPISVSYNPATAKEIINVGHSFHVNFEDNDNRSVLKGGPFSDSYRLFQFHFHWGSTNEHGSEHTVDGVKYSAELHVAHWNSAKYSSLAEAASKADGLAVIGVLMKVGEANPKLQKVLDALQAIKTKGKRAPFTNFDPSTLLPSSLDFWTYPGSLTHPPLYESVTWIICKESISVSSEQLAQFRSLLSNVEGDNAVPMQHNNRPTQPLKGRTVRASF

As to `O=S(=O)(O)ONOS(=O)(=O)O` [SODIUM IMINODISULFATE], the Ki turned out to be 0.31 µM at Carbonic anhydrase 1 and 0.76 µM at Carbonic anhydrase 2.

(Values after ChEMBL document CHEMBL1641428, “Inhibition of the β-carbonic anhydrase from Streptococcus pneumoniae by inorganic anions and small molecules: Toward innovative drug design of antiinfectives?” (Bioorg Med Chem, 2011).)
